{
  "source": "patent EP2386565A2",
  "about": "“Compounds and methods to inhibit or augment an inflammatory response” (Cambridge Enterprise Ltd., priority 1999, dated 2000)",
  "key": {"LPS-induced serum TNF-α": {"system": "LPS-induced serum TNF-α", "experiment": "Endotoxemia model (LPS i.p.)", "format": "in vivo, mice", "protocol": "A mouse endotoxemia model is used to screen agents of the invention for in vivo functional anti-inflammatory activity in a rapid manner. Female CD-1 mice are injected i.p. (ventral abdomen) with 583 µg LPS. mRNA and protein levels of TNF-α, IFN-γ, IL-4 and MCP-1 and other markers of the inflammatory response are then determined. Thirty minutes prior to LPS administration, the animals were administered one of three different doses of CRD-Leu4Ile11Cys13peptide 3(3-12)[MCP-1] as an intravenous loading dose and a subcutaneous bolus dose (on dorsum). PBS treated animals with and without LPS administration were positive and negative controls. Two hours later, animals were euthanized and serum collected. Serum was separated from the cell pellet and frozen until ELISA analysis of cytokine levels. Lung and liver samples were collected for mRNA analyses and histopathology. […] Serum levels and mRNA levels of IL-4, IFN-γ and MCP-1 are also determined.\nEach animal received a pretreatment (200 ul) by sub-cutaneous injection into the scruff at the back of the neck. All pre-treatment agents were administered at 1 mg per animal (approximately 40-50 mg/kg). After 30-45 minutes, animals in groups 2 through 6 received 750 µg bacterial lipopolysaccharide (LPS) in 300 µl PBS by intraperitoneal injection. Animals in group 1 received PBS vehicle alone.\nAfter 3 hours (2 hours post-LPS), all animals were sacrificed by terminal anaesthesia followed by cardiac puncture. Approximately 1 ml of blood was withdrawn and serum was prepared. Blood was allowed to clot at room temperature for approximately 2 hours, then the clot was spun out and the serum aliquoted and stored at -20°C until tested. Serum from each animal was assayed in duplicate for TNF-α using the Quantikine M kit (R&D Systems) calibrated by interpolation of the standard curve."}, "[1]": {"system": "ovalbumin-induced pulmonary inflammation, IgE, IL-4 and recall responses", "experiment": "Ovalbumin-induced asthma / hypersensitivity model", "format": "in vivo, mice", "set-up": "Total IgE (Serum), individual mice m1-m4 / Total IgE (Serum), Avg.: unit not given here", "protocol": "A third study assessed the efficacy of daily dosing with CRD-Leu4Ile11Cys13 peptide 3(3-12)[MCP-1] to reduce OVA-induced pulmonary inflammation. Mice were sensitized with 0.1 mg of ovalbumin or PBS (diluent control) intraperitoneally in the absence of the test agent. […] These treatments were given daily from day 8 through day 21. On day 8, thirty minutes following treatment, mice were challenged intratracheally with 1% ovalbumin or PBS. On days 15, 18, and 21, thirty minutes following treatment, mice were challenged intratracheally with 2% ovalbumin or PBS. Mice were sacrificed 3 hours post-ovalbumin challenge, on day 21. Lungs were collected for histopathology, and for isolation of cells for total cell counts and FACS analysis. Bronchalveolar lavage (BAL) was collected for eicosinoid levels. Serum was collected for IgE and IL-4 levels. Spleens were collected for cytokine recall responses. […]"}, "[2]": {"conditions": "Group 2: Ova on days 8, 15, 18, 21, treat 1 × day 21, sacrifice day 21, 0 µg/ml Ova"}, "[3]": {"conditions": "Group 4: Ova on days 8, 15, 18, 21 & 35, treat BID 14 days, sacrifice day 35 (recent Ova challenge), 0 µg/ml Ova"}},
  "note": "Several values for one entry are separate records, joined by “and”; a condition that tells them apart may be missing. Equal entries are not always repeated. Positions of bridges follow the written chain, without caps; N, C: chain ends. Non-standard residues stand in square brackets, D forms with d. Residues, ends and D or L forms follow the SMILES beside them.",
  "data": [
    {"molecule": "CC[C@@H](C)[C@H]1NC(=O)[C@@H](CCC(N)=O)NC(=O)[C@H](N)CSSC[C@H](C(N)=O)NC(=O)[C@@H](CC(C)C)NC(=O)[C@@H](CC(=O)O)NC(=O)[C@H]2CCCN2C(=O)[C@@H](CCCCN)NC(=O)[C@@H](CCC(N)=O)NC(=O)[C@@H](CCCCN)NC(=O)[C@@H](Cc2c[nH]c3ccccc23)NC1=O", "note": "(H-[dC][dQ][dI][dW][dK][dQ][dK][dP][dD][dL][dC]-NH2; disulfide 1-11)", "values": [
      {"measurement": "serum MCP-1 and liver MCP-1 RNA after LPS (in words)", "setting": "LPS-induced serum TNF-α; mouse, in vivo", "result": "no modulation"},
      {"measurement": "serum TNF-α after LPS (in words)", "setting": "LPS-induced serum TNF-α; mouse, in vivo", "result": "dose-dependent inhibition"},
      {"measurement": "serum TNF-α after LPS (in words)", "setting": "LPS-induced serum TNF-α; mouse, in vivo, listed as CRD-Leu4Ile11Cys13peptide 3(3-12)[MCP-1]", "result": "dose dependent decrease"},
      {"measurement": "half-maximal dose for inhibition of LPS-stimulated TNF-α", "setting": "LPS-induced serum TNF-α; s.c.", "result": "approximately 100 µg per animal"},
      {"measurement": "Total IgE (Serum), Avg.", "setting": "[1]; Group 2", "result": 1.505},
      {"measurement": "Total IgE (Serum), individual mice m1-m4", "setting": "[1]; Group 2 (single treatment day 21)", "result": "1.952 and 1.132 and 2.073 and 0.863"},
      {"measurement": "IL-4 Assays, pg/ml IL-4, Avg. of Group", "setting": "[1]; [2]", "result": 2.89, "unit": "pg/mL"},
      {"measurement": "IL-4 Assays, pg/ml IL-4, individual mice m1-m4", "setting": "[1]; [2]", "result": "2.81 pg/mL and 5.60 pg/mL and 0.25 pg/mL and 0.45 pg/mL"},
      {"measurement": "Total IgM + IgG (1 week splenocyte cultures), Avg.", "setting": "[1]; [2]", "result": 57.45},
      {"measurement": "Total IgM + IgG (1 week splenocyte cultures), individual mice m1-m4", "setting": "[1]; [2]", "result": "108.00 and 24.97 and 40.65 and 56.17"},
      {"measurement": "Total IgE (1 week splenocyte cultures)", "setting": "[1]; Group 2, 0 µg/ml Ova", "result": 0.067, "unit": "ng/mL"},
      {"measurement": "Total IgE (1 week splenocyte cultures), Avg.", "setting": "[1]; Group 2, 0 µg/ml Ova", "result": 0.017},
      {"measurement": "Total IgE (1 week splenocyte cultures), individual mice m1-m4", "setting": "[1]; Group 2, 0 µg/ml Ova", "result": "0.000 and 0.051 and 0.007 and 0.009"},
      {"measurement": "IL-4 Assays, pg/ml IL-4, Avg. of Group", "setting": "[1]; Group 2, 5 µg/ml Ova", "result": 5.86, "unit": "pg/mL"},
      {"measurement": "IL-4 Assays, pg/ml IL-4, individual mice m1-m4", "setting": "[1]; Group 2, 5 µg/ml Ova", "result": "3.18 pg/mL and 8.55 pg/mL"},
      {"measurement": "Total IgE (1 week splenocyte cultures)", "setting": "[1]; Group 2, 5 µg/ml Ova", "result": 0.128, "unit": "ng/mL"},
      {"measurement": "Total IgE (1 week splenocyte cultures), Avg.", "setting": "[1]; Group 2, 5 µg/ml Ova", "result": 0.032},
      {"measurement": "Total IgE (1 week splenocyte cultures), individual mice m1-m4", "setting": "[1]; Group 2, 5 µg/ml Ova", "result": "0.041 and 0.023"},
      {"measurement": "Total IgM + IgG (1 week splenocyte cultures), Avg.", "setting": "[1]; Group 2, 5 µg/ml Ova", "result": 150.46},
      {"measurement": "Total IgM + IgG (1 week splenocyte cultures), individual mice m1-m4", "setting": "[1]; Group 2, 5 µg/ml Ova", "result": "254.36 and 46.56"},
      {"measurement": "IL-4 Assays, pg/ml IL-4, Avg. of Group", "setting": "[1]; Group 2, 50 µg/ml Ova", "result": 12.57, "unit": "pg/mL"},
      {"measurement": "IL-4 Assays, pg/ml IL-4, individual mice m1-m4", "setting": "[1]; Group 2, 50 µg/ml Ova", "result": "7.10 pg/mL and 11.46 pg/mL and 19.15 pg/mL and 75.36 pg/mL"},
      {"measurement": "Total IgE (1 week splenocyte cultures)", "setting": "[1]; Group 2, 50 µg/ml Ova", "result": 0.024, "unit": "ng/mL"},
      {"measurement": "Total IgE (1 week splenocyte cultures), Avg.", "setting": "[1]; Group 2, 50 µg/ml Ova", "result": 0.006},
      {"measurement": "Total IgE (1 week splenocyte cultures), individual mice m1-m4", "setting": "[1]; Group 2, 50 µg/ml Ova", "result": "0.011 and 0.002 and 0.004 and 0.007"},
      {"measurement": "Total IgM + IgG (1 week splenocyte cultures), Avg.", "setting": "[1]; Group 2, 50 µg/ml Ova", "result": 241.75},
      {"measurement": "Total IgM + IgG (1 week splenocyte cultures), individual mice m1-m4", "setting": "[1]; Group 2, 50 µg/ml Ova", "result": "137.57 and 176.41 and 331.79 and 321.23"},
      {"measurement": "ng/ml IgE (4X avg.)", "setting": "[1]; Group 2, serum", "result": 6.020, "unit": "ng/mL"},
      {"measurement": "Total IgE (Serum), Avg.", "setting": "[1]; Group 4", "result": 0.621},
      {"measurement": "Total IgE (1 week splenocyte cultures), individual mice m1-m4", "setting": "[1]; Group 4 (recent Ova challenge), 0 µg/ml Ova, listed as CRD-Leu4Ile11Cys13peptide 3(3-12)[MCP-1]", "result": "0.008 and 0.001 and 0.015 and 0.002"},
      {"measurement": "Total IgE (Serum), individual mice m1-m4", "setting": "[1]; Group 4 (treated 14 days, recent Ova challenge)", "result": "0.310 and 0.298 and 0.984 and 0.890"},
      {"measurement": "IL-4 Assays, pg/ml IL-4, Avg. of Group", "setting": "[1]; [3]", "result": 2.92, "unit": "pg/mL"},
      {"measurement": "Total IgM + IgG (1 week splenocyte cultures), Avg.", "setting": "[1]; [3]", "result": 17.16},
      {"measurement": "Total IgE (1 week splenocyte cultures)", "setting": "[1]; Group 4, 0 µg/ml Ova", "result": 0.026, "unit": "ng/mL"},
      {"measurement": "Total IgE (1 week splenocyte cultures), Avg.", "setting": "[1]; Group 4, 0 µg/ml Ova", "result": 0.007},
      {"measurement": "IL-4 Assays, pg/ml IL-4, Avg. of Group", "setting": "[1]; Group 4, 5 µg/ml Ova", "result": 8.05, "unit": "pg/mL"},
      {"measurement": "IL-4 Assays, pg/ml IL-4, individual mice m1-m4", "setting": "[1]; Group 4, 5 µg/ml Ova", "result": "10.40 pg/mL and 12.77 pg/mL and 4.59 pg/mL and 4.45 pg/mL"},
      {"measurement": "Total IgE (1 week splenocyte cultures)", "setting": "[1]; Group 4, 5 µg/ml Ova", "result": 0.096, "unit": "ng/mL"},
      {"measurement": "Total IgE (1 week splenocyte cultures), Avg.", "setting": "[1]; Group 4, 5 µg/ml Ova", "result": 0.024},
      {"measurement": "Total IgM + IgG (1 week splenocyte cultures), Avg.", "setting": "[1]; Group 4, 5 µg/ml Ova", "result": 163.95},
      {"measurement": "Total IgE (1 week splenocyte cultures), individual mice m1-m4", "setting": "[1]; Group 4, 5 µg/ml Ova, listed as CRD-Leu4Ile11Cys13peptide 3(3-12)[MCP-1]", "result": "0.009 (2×) and 0.047 and 0.031"}
    ]}
  ]
}
